Test results reported in PMC10847306, “The antibacterial activity and mechanism of a novel peptide MR-22 against multidrug-resistant Escherichia coli” (Frontiers in Cellular and Infection Microbiology, 2024).
≈ marks a conversion by molar mass, not a printed value.

Assays:
Assay in all cases: microbe, parasite or virus in culture
E. coli ATCC 25922 = settings: for susceptibility category (S/I/R) given with the MIC: E. coli ATCC 25922; for MIC: Escherichia coli, ATCC25922, 18 h
Procedure: (§1) The MIC were determined by a micro dilution method in Mueller-Hinton broth (MHB) ([Cuenca-Estrella et al., 2010]). The final concentration of bacterial suspension in MHB were 1.0×10^6 CFU/mL. The final concentration of MR-22 ranged 1 ~ 256 μg/mL in 96 wells plate broth at 37°C for 16~18 h. Imipenem was employed as positive control, bacterial grown without treatment as negative control and MHB as blank control. MIC determination was performed by reading the OD600 nm. Take 100 μL samples in holes that have never seen bacterial growth and place them on the LB agar board. The concentration of MR-22 with no bacterial growth was defined as the MBC.

[1] = tested on: E. coli clinical strain E01; settings: for MIC: Escherichia coli, 18 h; for susceptibility category (S/I/R) given with the MIC: strain E01
Procedure: (§2) The clinical strains used in this study were obtained from a tertiary healthcare facility located in Guiyang, a city situated within the Guizhou Province of China. The E. coli ATCC 25922 was obtained from the Key and Characteristic Laboratory of Modern Pathogen Biology at Guizhou Medical University in Guiyang, China. All strains were stored at –80°C in LB medium and routinely cultured at LB medium at 37°C.
as §1

[2] = tested on: E. coli clinical strain E02; settings: for MIC: Escherichia coli, 18 h; for susceptibility category (S/I/R) given with the MIC: strain E02
Procedure: as §2, §1

[3] = tested on: E. coli clinical strain E03; settings: for MIC: Escherichia coli, 18 h; for susceptibility category (S/I/R) given with the MIC: strain E03
Procedure: as §2, §1

[4] = tested on: E. coli clinical strain E04; settings: for MIC: Escherichia coli, 18 h; for susceptibility category (S/I/R) given with the MIC: strain E04
Procedure: as §2, §1

[5] = tested on: E. coli clinical strain E05; settings: for MIC: Escherichia coli, 18 h; for susceptibility category (S/I/R) given with the MIC: strain E05
Procedure: as §2, §1

[6] = tested on: E. coli clinical strain E06; settings: for MIC: Escherichia coli, 18 h; for susceptibility category (S/I/R) given with the MIC: strain E06
Procedure: as §2, §1

[7] = tested on: E. coli clinical strain E07; settings: for MIC: Escherichia coli, 18 h; for susceptibility category (S/I/R) given with the MIC: strain E07
Procedure: as §2, §1

[8] = tested on: E. coli clinical strain E08; settings: for MIC: Escherichia coli, 18 h; for susceptibility category (S/I/R) given with the MIC: strain E08
Procedure: as §2, §1

[9] = tested on: E. coli clinical strain E09; settings: for MIC: Escherichia coli, 18 h; for susceptibility category (S/I/R) given with the MIC: strain E09
Procedure: as §2, §1

[10] = tested on: E. coli clinical strain E10; settings: for MIC: Escherichia coli, 18 h; for susceptibility category (S/I/R) given with the MIC: strain E10
Procedure: as §2, §1

[11] = tested on: E. coli clinical strain E11; settings: for MIC: Escherichia coli, 18 h; for susceptibility category (S/I/R) given with the MIC: strain E11
Procedure: as §2, §1

[12] = tested on: E. coli clinical strain E12; settings: for MIC: Escherichia coli, 18 h; for susceptibility category (S/I/R) given with the MIC: strain E12
Procedure: as §2, §1

[13] = tested on: E. coli clinical strain E13; settings: for MIC: Escherichia coli, 18 h; for susceptibility category (S/I/R) given with the MIC: strain E13
Procedure: as §2, §1

[14] = tested on: E. coli clinical strain E14; settings: for MIC: Escherichia coli, 18 h; for susceptibility category (S/I/R) given with the MIC: strain E14
Procedure: as §2, §1

[15] = tested on: E. coli clinical strain E15; settings: for MIC: Escherichia coli, 18 h; for susceptibility category (S/I/R) given with the MIC: strain E15
Procedure: as §2, §1

[16] = tested on: E. coli clinical strain E16; settings: for MIC: Escherichia coli, 18 h; for susceptibility category (S/I/R) given with the MIC: strain E16
Procedure: as §2, §1

[17] = tested on: E. coli clinical strain E17; settings: for MIC: Escherichia coli, 18 h; for susceptibility category (S/I/R) given with the MIC: strain E17
Procedure: as §2, §1

[18] = tested on: E. coli clinical strain E18; settings: for MIC: Escherichia coli, 18 h; for susceptibility category (S/I/R) given with the MIC: strain E18
Procedure: as §2, §1

[19] = tested on: E. coli clinical strain E19; settings: for MIC: Escherichia coli, 18 h; for susceptibility category (S/I/R) given with the MIC: strain E19
Procedure: as §2, §1

[20] = tested on: E. coli clinical strain E20; settings: for MIC: Escherichia coli, 18 h; for susceptibility category (S/I/R) given with the MIC: strain E20
Procedure: as §2, §1

[21] = tested on: E. coli clinical strain E21; settings: for MIC: Escherichia coli, 18 h; for susceptibility category (S/I/R) given with the MIC: strain E21
Procedure: as §2, §1

[22] = tested on: E. coli clinical strain E22; settings: for MIC: Escherichia coli, 18 h; for susceptibility category (S/I/R) given with the MIC: strain E22
Procedure: as §2, §1

For `CO/N=C(\C(=O)N[C@@H]1C(=O)N2C(C(=O)[O-])=C(C[N+]3(C)CCCC3)CS[C@H]12)c1csc(N)n1` [FEP, cefepime], the “susceptibility category (S/I/R) given with the MIC” value (“susceptibility category” below) (E. coli ATCC 25922) was “S”, the MIC (E. coli ATCC 25922) was ≤ 2 µg/mL and the MIC [1] was ≤ 2 µg/mL. For the same molecule, the “susceptibility category” value [1] was “S”, the MIC [2] was > 16 µg/mL and the “susceptibility category” value [2] was “R”. For the same molecule, the MIC [3] was 16 µg/mL (≈ 33.3 µM), the “susceptibility category” value [3] was “R” and the MIC [4] was > 16 µg/mL. The “susceptibility category” value [4] was “R”, the MIC [5] was > 16 µg/mL and the “susceptibility category” value [5] was “R”. For the same molecule, the MIC [6] was > 16 µg/mL, the “susceptibility category” value [6] was “R” and the MIC [7] was > 16 µg/mL. For the same molecule, the “susceptibility category” value [7] was “R”, the MIC [8] was ≤ 2 µg/mL and the “susceptibility category” value [8] was “S”. For the same molecule, the MIC [9] was ≤ 2 µg/mL, the “susceptibility category” value [9] was “S” and the MIC [10] was 16 µg/mL (≈ 33.3 µM). The “susceptibility category” value [10] was “R”, the MIC [11] was > 16 µg/mL and the “susceptibility category” value [11] was “R”. For the same molecule, the MIC [12] was 4 µg/mL (≈ 8.32 µM), the “susceptibility category” value [12] was “I” and the MIC [13] was ≤ 2 µg/mL. For the same molecule, the “susceptibility category” value [13] was “S”, the MIC [14] was 16 µg/mL (≈ 33.3 µM) and the “susceptibility category” value [14] was “R”. For the same molecule, the MIC [15] was ≤ 2 µg/mL, the “susceptibility category” value [15] was “S” and the MIC [16] was ≤ 2 µg/mL. The “susceptibility category” value [16] was “S”, the MIC [17] was ≤ 2 µg/mL and the “susceptibility category” value [17] was “S”. For the same molecule, the MIC [18] was 16 µg/mL (≈ 33.3 µM), the “susceptibility category” value [18] was “R” and the MIC [19] was 16 µg/mL (≈ 33.3 µM). For the same molecule, the “susceptibility category” value [19] was “R”, the MIC [20] was 16 µg/mL (≈ 33.3 µM) and the “susceptibility category” value [20] was “R”. The MIC [21] was 16 µg/mL (≈ 33.3 µM), the “susceptibility category” value [21] was “R” and the MIC [22] was ≥ 32 µg/mL. For the same molecule, the “susceptibility category” value [22] was “R”.
For `CN(C)[C@@H]1C(O)=C(C(N)=O)C(=O)[C@@]2(O)C(O)=C3C(=O)c4c(O)cccc4[C@@](C)(O)[C@H]3C[C@@H]12` [TET, tetracycline], the “susceptibility category” value (E. coli ATCC 25922) was “S”, the MIC (E. coli ATCC 25922) was ≤ 0.5 µg/mL and the MIC [1] was ≤ 0.5 µg/mL. For the same molecule, the “susceptibility category” value [1] was “S”, the MIC [2] was > 8 µg/mL and the “susceptibility category” value [2] was “R”. For the same molecule, the MIC [3] was > 8 µg/mL, the “susceptibility category” value [3] was “R” and the MIC [4] was > 8 µg/mL. The “susceptibility category” value [4] was “R”, the MIC [5] was > 8 µg/mL and the “susceptibility category” value [5] was “R”. The MIC [6] was > 8 µg/mL, the “susceptibility category” value [6] was “R” and the MIC [7] was > 8 µg/mL. The “susceptibility category” value [7] was “R”, the MIC [8] was > 8 µg/mL and the “susceptibility category” value [8] was “R”. For the same molecule, the MIC [9] was > 8 µg/mL, the “susceptibility category” value [9] was “R” and the MIC [10] was ≤ 0.5 µg/mL. For the same molecule, the “susceptibility category” value [10] was “S”, the MIC [11] was > 8 µg/mL and the “susceptibility category” value [11] was “R”. For the same molecule, the MIC [12] was > 8 µg/mL, the “susceptibility category” value [12] was “R” and the MIC [13] was ≤ 0.5 µg/mL. The “susceptibility category” value [13] was “S”, the MIC [14] was > 8 µg/mL and the “susceptibility category” value [14] was “R”. The MIC [15] was ≤ 0.5 µg/mL, the “susceptibility category” value [15] was “S” and the MIC [16] was ≤ 0.5 µg/mL. The “susceptibility category” value [16] was “S”, the MIC [17] was ≤ 0.5 µg/mL and the “susceptibility category” value [17] was “S”. For the same molecule, the MIC [18] was ≤ 0.5 µg/mL, the “susceptibility category” value [18] was “S” and the MIC [19] was ≤ 0.5 µg/mL. For the same molecule, the “susceptibility category” value [19] was “S”, the MIC [20] was ≤ 0.5 µg/mL and the “susceptibility category” value [20] was “S”. The MIC [21] was ≤ 0.5 µg/mL, the “susceptibility category” value [21] was “S” and the MIC [22] was ≤ 0.5 µg/mL. For the same molecule, the “susceptibility category” value [22] was “S”.
With `C[C@H]1COc2c(N3CCN(C)CC3)c(F)cc3c(=O)c(C(=O)O)cn1c23` [LEV, levofloxacin] the “susceptibility category” value (E. coli ATCC 25922) was “S”, the MIC (E. coli ATCC 25922) was ≤ 0.5 µg/mL and the MIC [1] was ≤ 0.5 µg/mL. The “susceptibility category” value [1] was “S”, the MIC [2] was ≤ 0.5 µg/mL and the “susceptibility category” value [2] was “S”. The MIC [3] was 8 µg/mL (≈ 22.1 µM), the “susceptibility category” value [3] was “R” and the MIC [4] was > 8 µg/mL. For the same molecule, the “susceptibility category” value [4] was “R”, the MIC [5] was ≤ 0.5 µg/mL and the “susceptibility category” value [5] was “S”. The MIC [6] was 8 µg/mL (≈ 22.1 µM), the “susceptibility category” value [6] was “R” and the MIC [7] was ≤ 0.5 µg/mL. For the same molecule, the “susceptibility category” value [7] was “S”, the MIC [8] was ≤ 0.5 µg/mL and the “susceptibility category” value [8] was “S”. The MIC [9] was 8 µg/mL (≈ 22.1 µM), the “susceptibility category” value [9] was “R” and the MIC [10] was ≤ 0.5 µg/mL. For the same molecule, the “susceptibility category” value [10] was “S”, the MIC [11] was ≤ 0.5 µg/mL and the “susceptibility category” value [11] was “S”. The MIC [12] was > 8 µg/mL, the “susceptibility category” value [12] was “R” and the MIC [13] was ≤ 0.5 µg/mL. For the same molecule, the “susceptibility category” value [13] was “S”, the MIC [14] was > 8 µg/mL and the “susceptibility category” value [14] was “R”. For the same molecule, the MIC [15] was 0.5 µg/mL (≈ 1.38 µM), the “susceptibility category” value [15] was “S” and the MIC [16] was 1 µg/mL (≈ 2.77 µM). For the same molecule, the “susceptibility category” value [16] was “I”, the MIC [17] was > 8 µg/mL and the “susceptibility category” value [17] was “R”. The MIC [18] was > 8 µg/mL, the “susceptibility category” value [18] was “R” and the MIC [19] was > 8 µg/mL. The “susceptibility category” value [19] was “R”, the MIC [20] was > 8 µg/mL and the “susceptibility category” value [20] was “R”. For the same molecule, the MIC [21] was ≤ 0.5 µg/mL, the “susceptibility category” value [21] was “S” and the MIC [22] was > 8 µg/mL. The “susceptibility category” value [22] was “R”.
